The target of this experiment is T1, purified recombinantly expressed human SSAO (Homo sapiens, UniProt Q16853).
T1 construct: made in house
T1 sequence (Q16853 1-763): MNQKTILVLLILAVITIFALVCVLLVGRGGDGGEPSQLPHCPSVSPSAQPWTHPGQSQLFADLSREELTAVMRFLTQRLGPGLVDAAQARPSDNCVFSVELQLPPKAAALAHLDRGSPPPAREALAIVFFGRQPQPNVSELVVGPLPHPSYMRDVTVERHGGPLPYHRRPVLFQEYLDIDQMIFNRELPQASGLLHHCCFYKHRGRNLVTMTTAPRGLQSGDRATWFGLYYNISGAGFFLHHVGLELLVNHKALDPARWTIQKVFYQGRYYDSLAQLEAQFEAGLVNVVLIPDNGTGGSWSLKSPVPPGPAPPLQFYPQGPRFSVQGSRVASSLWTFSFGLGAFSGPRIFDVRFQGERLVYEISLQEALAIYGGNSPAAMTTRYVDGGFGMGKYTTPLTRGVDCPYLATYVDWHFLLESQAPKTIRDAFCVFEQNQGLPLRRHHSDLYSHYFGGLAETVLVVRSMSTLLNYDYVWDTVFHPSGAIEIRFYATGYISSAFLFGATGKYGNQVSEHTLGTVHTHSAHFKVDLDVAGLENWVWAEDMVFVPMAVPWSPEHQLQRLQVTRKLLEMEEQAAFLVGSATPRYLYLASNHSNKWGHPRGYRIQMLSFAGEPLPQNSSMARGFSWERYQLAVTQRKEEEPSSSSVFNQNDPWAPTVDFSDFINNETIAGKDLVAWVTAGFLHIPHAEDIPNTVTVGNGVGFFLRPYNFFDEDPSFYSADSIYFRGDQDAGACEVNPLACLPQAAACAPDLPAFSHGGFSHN
The experiment can be described thus: SSAO enzyme inhibition assay (benzylamine substrate; hydrogen peroxide/HRP-coupled or 14C aldehyde detection). The experiment is classed as biochemical. As to conditions: SSAO inhibitory activity, RT. As to the method:
All primary assays were performed at RT. with purified recombinantly expressed human SSAO. Enzyme was prepared essentially as described in Öhman et al. (Protein Expression and Purification 46 (2006) 321-331). In addition, secondary- and selectivity assays were performed using SSAO prepared from various tissues or purified rat recombinant SSAO. The enzyme activity was assayed with benzylamine as substrate by measuring either benzaldehyde production, using ^14C-labeled substrate, or by utilizing the production of hydrogen peroxide in a horseradish peroxidase (HRP) coupled reaction. Briefly, test compounds were dissolved in dimethyl sulfoxide (DMSO) to a concentration of 10 mM. Dose-response measurements were assayed by either creating 1:10 serial dilutions in DMSO to produce a 7 point curve or by making 1:3 serial dilutions in DMSO to produce 11 point curves.
In a horseradish peroxidase (HRP) coupled reaction, hydrogen peroxide oxidation of 10-acetyl-3,7-dihydroxyphenoxazine produced resorufin, which is a highly fluorescent compound (Zhout and Panchuk-Voloshina. Analytical Biochemistry 253 (1997) 169-174; Amplex® Red Hydrogen Peroxide/peroxidase Assay kit, Invitrogen A22188). Enzyme and compounds in 50 mM sodium phosphate, pH 7.4 were set to pre-incubate in flat-bottomed microtiter plates for approximately 15 min before initiating the reaction by addition of a mixture of HRP, benzylamine and Amplex reagent. Benzylamine concentration was fixed at a concentration corresponding to the Michaelis constant, determined using standard procedures. Fluorescence intensity was then measured at several time points during 1-2 h, exciting at 544 nm and reading the emission at 590 nm. For the human SSAO assay final concentrations of the reagents in the assay wells were: SSAO enzyme 1 ug/ml, benzylamine 100 uM, Amplex reagent 20 uM, HRP 0.1 U/mL and varying concentrations of test compound. The inhibition was measured as % decrease of the signal compared to a control without inhibitor (only diluted DMSO). The background signal from a sample containing no SSAO enzyme was subtracted from all data points. Data was fitted to a four parameter logistic model and IC50 values were calculated using the Graph Pad Prism 4 or XLfit 4 programs.
SSAO activity was assayed using 14C-labeled benzylamine and analysed by measuring radioactive benzaldehyde. In a white 96-well optiplate (Packard), 20 uL of diluted test compound was pre-incubated at room temperature with 20 uL SSAO enzyme for approximately 15 min with continuous agitation. All dilutions were made with PBS. The reaction was initiated by adding 20 uL of the benzylamine substrate solution containing [7-14C] Benzylamine hydrochloride (CFA589, GE Healthcare). The plate was incubated for 1 h as above after which the reaction was stopped by acidification (10 uL 1M aq HCl). Then 90 uL Micro Scint-E solution (Perkin-Elmer) was added to each well and the plate was continuously mixed for 15 min. Phase separation occurred instantly and activity was read in a Topcount scintillation counter (Perkin-Elmer). In the final reaction well, the human recombinant SSAO concentration was 10 ug/ml. In order to optimize sensitivity, the substrate concentration was decreased as compared to the HRP coupled assay in order to get a higher fraction of radioactive product. In the human SSAO assay, benzylamine concentration was 40 uM (0.2 uCi/mL). Data was analysed as above.

Where a name gives a salt, the structure may show the parent alone. Some results are limits rather than exact numbers.

As to `Fc1ccc(-n2c(-c3cnc(N4CCOCC4)nc3)nc3ccncc32)c(Cl)c1` [Example 56, 4-{5-[3-(2-Chloro-4-fluorophenyl)-3H-imidazo[4,5-c]pyridin-2-yl]pyrimidin-2-yl}morpholine], the IC50 (in general, the midpoint of a concentration-inhibition curve) was in the range of 200 to 1200 nM. Regarding `Nc1ccc(-c2nc3ccncc3n2-c2ccc(Cl)cc2F)cn1` [Example 105, 5-[3-(4-Chloro-2-fluorophenyl)-3H-imidazo[4,5-c]pyridin-2-yl]pyridin-2-amine], the IC50 was in the range of 200 to 1200 nM. Regarding `Fc1ccc(-n2c(-c3ccc(N4CCOCC4)nc3)nc3ccncc32)c(Cl)c1` [Example 61, 4-{5-[3-(2-Chloro-4-fluorophenyl)-3H-imidazo[4,5-c]pyridin-2-yl]pyridin-2-yl}morpholine], the IC50 is under 50 nM. As for `Cc1ccc(-n2c(-c3cnc(N4CCOCC4)cc3C)nc3ccncc32)cn1` [Example 107, 4-{4-Methyl-5-[3-(6-methylpyridin-3-yl)-3H-imidazo[4,5-c]pyridin-2-yl]pyridin-2-yl}morpholine], the figure is under 50 nM; as for `Cc1nc(N2CCOCC2)ccc1-c1nc2ccncc2n1-c1ccc(F)cc1` [Example 108, 4-{5-[3-(4-Fluorophenyl)-3H-imidazo[4,5-c]pyridin-2-yl]-6-methylpyridin-2-yl}morpholine], 200 to 1200 nM. As for `NC(=O)N1CCCN(c2ccc(-c3nc4ccncc4n3-c3ccc(F)cc3)cn2)CC1` [Example 94, 4-{5-[3-(4-Fluorophenyl)-3H-imidazo[4,5-c]pyridin-2-yl]pyridin-2-yl}-1,4-diazepane-1-carboxamide], the IC50 is 200 to 1200 nM.

For `Cc1nc(N2CCOCC2)ncc1-c1nc2ccncc2n1-c1ccc(F)cc1` [Example 26, 4-{5-[3-(4-Fluorophenyl)-3H-imidazo[4,5-c]pyridin-2-yl]-4-methylpyrimidin-2-yl} morpholine], the IC50 was in the range of 50 to 200 nM. With `Clc1ccc(-n2c(-c3cnc(NCC4CC4)nc3)cc3ccncc32)cc1` [Example 149, 5-[1-(4-Chlorophenyl)-1H-pyrrolo[2,3-c]pyridin-2-yl]-N-(cyclopropylmethyl)pyrimidin-2-amine], the IC50 was under 50 nM. On to `O=c1cc(-c2nc3ccncc3n2-c2ccc(Cl)cc2F)cc[nH]1` [Example 34, 4-[3-(4-Chloro-2-fluorophenyl)-3H-imidazo[4,5-c]pyridin-2-yl]-1,2-dihydropyridin-2-one], for which the IC50 lay within 50 to 200 nM. Regarding `Cn1ccc(-c2nc3ccncc3n2-c2ccc(F)cc2)cc1=O` [Example 114, 4-[3-(4-Fluorophenyl)-3H-imidazo[4,5-c]pyridin-2-yl]-1-methyl-1,2-dihydropyridin-2-one], the IC50 lay within 200 to 1200 nM. In the case of `Cn1cncc1-c1cc2ccncc2n1-c1ccc(Cl)cc1` [Example 136, 5-[1-(4-Chlorophenyl)-1H-pyrrolo[2,3-c]pyridin-2-yl]-1-methyl-1H-imidazole], the IC50 is under 50 nM. On to `CC(=O)N1CCCN(c2ccc(-c3nc4ccncc4n3-c3ccc(F)cc3)cn2)CC1` [Example 87, 1-(4-{5-[3-(4-Fluorophenyl)-3H-imidazo[4,5-c]pyridin-2-yl]pyridin-2-yl}-1,4-diazepan-1-yl)ethan-1-one; bis(trifluoroacetic acid)], for which the IC50 was under 50 nM. `Cc1nc(N2CCOCC2)ncc1-c1nc2ccncc2n1-c1ccc(Cl)cc1F` [Example 27, 4-{5-[3-(4-Chloro-2-fluorophenyl)-3H-imidazo [4,5-c]pyridin-2-yl]-4-methylpyrimidin-2-yl} morpholine]: the IC50 is under 50 nM. Take `O=C(NC1CC1)c1ccc(-c2nc3ccncc3n2-c2ccc(Cl)cc2)cn1` [Example 14, 5-[3-(4-Chlorophenyl)-3H-imidazo[4,5-c]pyridin-2-yl]-N-cyclopropylpyridine-2-carboxamide]: the IC50 lay within 200 to 1200 nM.

Turning to `NC1CCN(c2ccc(-c3nc4ccncc4n3-c3ccc(Cl)cc3)cn2)CC1` [Example 8, 1-{5-[3-(4-Chlorophenyl)-3H-imidazo[4,5-c]pyridin-2-yl]pyridin-2-yl}piperidin-4-amine], the IC50 was under 50 nM. As to `NC(=O)N1CCN(c2ccc(-c3nc4ccncc4n3-c3ccc(Cl)cc3)cn2)CC1` [Example 90, 4-{5-[3-(4-Chlorophenyl)-3H-imidazo[4,5-c]pyridin-2-yl]pyridin-2-yl}piperazine-1-carboxamide dihydrochloride], the IC50 is under 50 nM.

With `Fc1cc(-n2c(-c3cnc(N4CCOCC4)nc3)nc3ccncc32)ccc1Cl` [Example 74, 4-{5-[3-(4-Chloro-3-fluorophenyl)-3H-imidazo[4,5-c]pyridin-2-yl]pyrimidin-2-yl}morpholine], the IC50 lay within 200 to 1200 nM. `Clc1ccc(-n2c(-c3cncc(Cl)c3)cc3ccncc32)cc1` [Example 150, 3-Chloro-5-[1-(4-chlorophenyl)-1H-pyrrolo[2,3-c]pyridin-2-yl]pyridine]: the IC50 lay in the range of 50 to 200 nM. As for `CN1CCN(C(=O)c2ccc(-c3cc4ccncc4n3-c3ccc(Cl)cc3)cc2)CC1` [Example 125, 1-({4-[1-(4-Chlorophenyl)-1H-pyrrolo[2,3-c]pyridin-2-yl]phenyl}carbonyl)-4-methylpiperazine], the IC50 was in the range of 200 to 1200 nM. The value for `Clc1ccc(-n2c(-c3cnc(NC4CCOCC4)cn3)nc3ccncc32)cc1` [Example 7, 5-[3-(4-Chlorophenyl)-3H-imidazo[4,5-c]pyridin-2-yl]-N-(oxan-4-yl)pyrazin-2-amine] was 50 to 200 nM; that for `Fc1cc(Cl)ccc1-n1c(-c2cnc(N3CCCC3)nc2)nc2ccncc21` [Example 83, 5-[3-(4-Chloro-2-fluorophenyl)-3H-imidazo[4,5-c]pyridin-2-yl]-2-(pyrrolidin-1-yl)pyrimidine] was under 50 nM; that for `Cc1cc(N2CCOCC2)nc(C)c1-c1nc2ccncc2n1-c1ccc(F)cc1` [Example 29, 4-{5-[3-(4-Fluorophenyl)-3H-imidazo[4,5-c]pyridin-2-yl]-4,6-dimethylpyridin-2-yl} morpholine] was 200 to 1200 nM. For `CN1CCN(c2ncc(-c3nc4ccncc4n3-c3ccc(F)cc3)cn2)CC1=O` [Example 40, 4-{5-[3-(4-Fluorophenyl)-3H-imidazo[4,5-c]pyridin-2-yl]pyrimidin-2-yl}-1-methylpiperazin-2-one], the IC50 fell in the range of 50 to 200 nM.

For `O=c1ccc(-c2nc3ccncc3n2-c2ccc(Cl)cc2F)c[nH]1` [Example 35, 5-[3-(4-Chloro-2-fluorophenyl)-3H-imidazo[4,5-c]pyridin-2-yl]-1,2-dihydropyridin-2-one], the IC50 is 200 to 1200 nM.

In the case of `Fc1ccccc1-n1c(-c2cnc(N3CCOCC3)nc2)nc2ccncc21` [Example 60, 4-{5-[3-(2-Fluorophenyl)-3H-imidazo[4,5-c]pyridin-2-yl]pyrimidin-2-yl}morpholine], the IC50 lay within 50 to 200 nM.

Consider `Clc1ccc(-n2c(-c3cnccn3)cc3ccncc32)cc1` [Example 124, 2-[1-(4-Chlorophenyl)-1H-pyrrolo[2,3-c]pyridin-2-yl]pyrazine], for which the IC50 is under 50 nM.

Source of the values: patent publication US20150258101A1 (Proximagen Limited, priority 2014, published 2015).
